Measured values: article PMC4836799, “Experimental and Theoretical Evaluation of the Ethynyl Moiety as a Halogen Bioisostere” (ACS Chemical Biology, 2015)
Values joined by “and” are separate entries in the source; they are usually repeats but may differ in a detail not shown here. Identical values can stand only once.

Experiments:
[1] = target: T1, T-p53C-Y220C (Homo sapiens, UniProt P04637, M133L/N239Y/N268D/V203A/Y220C); experiment: Differential scanning fluorimetry (DSF); type: binding; conditions: 10 μM protein
T1 construct: made in house
Method: The effect of compounds on the melting temperature of T-p53C-Y220C were monitored using SYPRO Orange (Invitrogen, USA) as a fluorescent probe, which quantitatively binds to hydrophobic protein patches exposed upon thermal denaturation. Real-time melt analysis was performed using a Corbett Rotor-Gene 6000 real-time qPCR thermocycler. Excitation and emission filters were set to 460 and 510 nm, respectively. Heating from 28 to 60 °C, a constant heating rate of 270 K/h was applied. The protein (final concentration of 10 μM) was briefly mixed with SYPRO orange (10x) in buffer (25 mM KPi pH 7.2, 150 mM NaCl, 1 mM TCEP), and compound (5 mM) dissolved in DMSO was added to give a final compound concentration of 250 μM in 5% (v/v) DMSO. The melting temperature (Tm) of the protein (10 μM) in the presence of compounds was determined from the inflection point of the melting curve. Melting temperatures were compared with control samples without compound (yielding ΔTm DSF). All samples were measured in triplicate.

[2] = target: T2, p53-Y220C DNA-binding domain (Homo sapiens, UniProt P04637, M133L/N239Y/N268D/V203A/Y220C); experiment: Competition ITC with PK5174 (1) as coupling ligand
T2 construct: made in house
Method: We assessed the binding of 3 to the stabilized DNA-binding domain of the p53 mutant Y220C (residues 94–312) using an array of biophysical techniques. […] Because the competition titration could not be performed at a c-value of 2 or higher, it was not possible to reliably decompose ΔG into ΔH and ΔS.[25]
All ITC experiments were conducted using a Microcal iTC200 calorimeter as previously described.[14] Briefly, protein and compounds were dissolved in 25 mM KPi, pH 7.2, 150 mM NaCl, 1 mM TCEP in 5% (v/v) DMSO. The cell unit contained 80 μM protein, and 2 mM compound was used for the syringe. The ITC competition experiment was conducted using 500 μM of compound 3 and 50 μM protein for the cell sample and 2 mM of compound 1 in the syringe. The actual and apparent binding constants for 1 were calculated with MicroCal Origin software using a standard one-site model. The binding constant of 3 was then calculated using an equation for ITC displacement titrations described by Zhang and Zhang[24] [drawing 2]

Q: Which results are given for `C#Cc1cc(C#CCOc2ccccc2)cc(CN2CCC(N(CC)CC)CC2)c1O` [PK5211, 2-((4-(diethylamino)piperidin-1-yl)methyl)-6-ethynyl-4-(3-phenoxyprop-1-ynyl)phenol]?
A: thermal stabilization of the mutant protein (Tm) [1]: concentration-dependent thermal stabilization; thermal stabilization of the mutant protein (Tm) ([1]; listed as 3): concentration-dependent increase of the protein melting point; Kd ([2]; competition with PK5174 (1), 500 μM compound 3, equation of Zhang and Zhang, read-out: KD determined indirectly by competition ITC): ~270 µM and 271 µM; loss in affinity ([2]; ethynyl compound 3 versus iodo compound 2): approximately 13 fold
